Assay results reported in US20190389865A1, “SUBSTITUTED PYRROLO[1,2-a]TRIAZINES AND RELATED COMPOUNDS AND THEIR USE IN THE TREATMENT OF MEDICAL DISORDERS” (Lysosomal Therapeutics Inc., priority 2016, published 2019).
Converted amounts (≈) assume the structure as drawn.

Assays:
[1] = Compound solubility in water; assay type: physicochemical
[2] = target: T1, glucocerebrosidase (Gcase) (Homo sapiens, UniProt P04062); test: Glucocerebrosidase (Gcase) activation assay, 4-methylumbelliferyl-beta-D-glucopyranoside substrate, fluorescence; assay type: biochemical; conditions: 10 nM GCase, 100 nM saposin C, pH 4.7; for activation at 0.1 µM: 0.1 μM test compound, read-out: Percent Gcase Activation, 0.1 μM Test Compound; for activation at 1 µM: 1 μM test compound, read-out: Percent Gcase Activation, 1 μM Test Compound
T1 sequence (P04062 40-536): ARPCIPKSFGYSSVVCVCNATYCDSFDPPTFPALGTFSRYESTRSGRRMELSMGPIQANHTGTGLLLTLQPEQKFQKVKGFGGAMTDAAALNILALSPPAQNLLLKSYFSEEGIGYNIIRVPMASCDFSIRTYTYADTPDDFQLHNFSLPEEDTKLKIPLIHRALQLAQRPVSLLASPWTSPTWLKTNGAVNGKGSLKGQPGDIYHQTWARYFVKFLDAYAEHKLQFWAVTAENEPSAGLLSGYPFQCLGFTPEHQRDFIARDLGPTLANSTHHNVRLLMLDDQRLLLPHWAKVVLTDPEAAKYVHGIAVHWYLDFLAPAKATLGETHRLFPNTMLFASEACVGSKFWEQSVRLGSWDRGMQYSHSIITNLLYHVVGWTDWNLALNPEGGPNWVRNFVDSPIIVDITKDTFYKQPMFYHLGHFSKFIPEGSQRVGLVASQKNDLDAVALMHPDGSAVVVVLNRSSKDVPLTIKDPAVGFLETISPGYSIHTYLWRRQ
Description: The ability of exemplary compounds to activate glucocerebrosidase (Gcase) was measured.
A 484 μL aliquot of a 1.0 mg/mL solution of phosphatidylserine (PS) (Sigma P7769) in chloroform was evaporated under a stream of nitrogen for 1 hour. The lipid film was dissolved over 4 minutes of vigorous vortexing in 40 mL of 176 mM K2HPO4/50 mM citric acid (pH 4.7) containing 7.5 μL of triton X-100, resulting in a mixed micellar preparation with a composition of 0.32 mM triton and 0.37 mol % PS. 4-Methylumbelliferyl-beta-D-glucopyranoside (ACROS-337025000) was dissolved in the micellar solution to a final concentration of 2 mM for use as the reaction substrate.
Test compounds were diluted to the desired concentrations with dimethylsulfoxide (DMSO) from 10 mM stocks, and 0.41 μL of the DMSO compound mixture was added to 100 μL of micellar solution containing 10 nM GCase and 100 nM saposin C (Enzo ALX-201-262-C050). Pre-incubation was allowed to occur for 30 minutes at room temperature, after which the reaction was initiated by combining 25 μL of substrate solution with 25 μL of compound/GCase/saposin mixture. The reaction proceeded for 15 minutes at room temperature and was stopped by adding 150 μL of 1M glycine, pH 12.5. The endpoint of the reaction was monitored by measuring fluorescence intensity (excitation: 365 nm; emission: 440 nm) on a SpectraMax i3 instrument (Molecular Devices). […]

Row | SMILES | solubility [1] [µg/mL] | activation at 0.1 µM [2] [%] | activation at 1 µM [2] [%]
1 | Cc1nc(C)c2cccc(C(=O)NC3CCCc4ccccc43)c2n1 (stereo not drawn) [2,4-Dimethyl-N-(1,2,3,4-tetrahydronaphthalen-1-yl)quinazoline-8-carboxamide] | 5 (≈ 15.1 µM) | < 5 | 5 to 20
2 | Cc1nc(C)n2ccc(C(=O)NC3(C)CCCc4ccccc43)c2n1 (stereo not drawn) [2,4-Dimethyl-N-(1-methyl-1,2,3,4-tetrahydronaphthalen-1-yl)pyrrolo[1,2-a][1,3,5]triazine-8-carboxamide] | 5.1 (≈ 15.3 µM) | 5 to 20 | > 20
3 | CCC(NC(=O)c1ccn2c(C)nc(C)nc12)c1ccccc1 (stereo not drawn) [2,4-Dimethyl-N-(1-phenylpropyl)pyrrolo[1,2-a][1,3,5]triazine-8-carboxamide] | 17.4 (≈ 56.4 µM) | 5 to 20 | > 20
4 | CCC(NC(=O)c1cccc2c(C)nc(C)nc12)c1ccccc1 (stereo not drawn) [2,4-Dimethyl-N-(1-phenylpropyl)quinazoline-8-carboxamide] | 8.7 (≈ 27.2 µM) | < 5 | 5 to 20
5 | CCCCCO[C@H]1CC[C@H](NC(=O)c2cccc3c(C)nc(C)nc23)CC1 [2,4-Dimethyl-N-((1R,4R)-4-(pentyloxy)cyclohexyl)quinazoline-8-carboxamide] | 7.6 (≈ 20.6 µM) | < 5 | 5 to 20
6 | CCCCCO[C@H]1CC[C@H](NC(=O)c2ccn3c(C)nc(C)nc23)CC1 [2,4-Dimethyl-N-((1S,4S)-4-(pentyloxy)cyclohexyl) pyrrolo[1,2-a][1,3,5]triazine-8-carboxamide] | 12.5 (≈ 35 µM) | 5 to 20 | > 20
7 | Cc1nc(-c2cccc(C(N)=O)c2)nc2c(C(=O)NC(C3CC3)C(F)(F)F)ccn12 (stereo not drawn) [2-(3-Carbamoylphenyl)-N-(1-cyclopropyl-2,2,2-trifluoroethyl)-4-methylpyrrolo[1,2-a][1,3,5]triazine-8-carboxamide] | 1.9 (≈ 4.55 µM) | > 20 | > 20
8 | Cc1nc(-c2cccc(C#N)c2)nc2c(C(=O)NC(C3CC3)C(F)(F)F)ccn12 (stereo not drawn) [2-(3-Cyanophenyl)-N-(1-cyclopropyl-2,2,2-trifluoroethyl)-4-methylpyrrolo[1,2-a][1,3,5]triazine-8-carboxamide] | 0.6 (≈ 1.5 µM) | > 20 | > 20
9 | COc1cc(-c2nc(C)n3ccc(C(=O)NC(C)C(F)(F)F)c3n2)ccc1F (stereo not drawn) [2-(4-Fluoro-3-methoxyphenyl)-4-methyl-N-(1,1,1-trifluoropropan-2-yl)pyrrolo[1,2-a][1,3,5]triazine-8-carboxamide] | 1 (≈ 2.52 µM) | > 20 | > 20

Continued, values first:

Row | solubility [1] [µg/mL] | activation at 0.1 µM [2] [%] | activation at 1 µM [2] [%] | SMILES
10 | 28.2 (≈ 90.3 µM) | 5 to 20 | > 20 | Cc1nc(C)n2ccc(C(=O)NC(C3CC3)C(F)(F)F)c2n1 (stereo not drawn) [N-(1-Cyclopropyl-2,2,2-trifluoroethyl)-2,4-dimethylpyrrolo[1,2-a][1,3,5]triazine-8-carboxamide]
11 | 0.2 (≈ 0.51 µM) | > 20 | > 20 | Cc1nc(-c2cccc(F)c2)nc2c(C(=O)NC(C3CC3)C(F)(F)F)ccn12 (stereo not drawn) [N-(1-Cyclopropyl-2,2,2-trifluoroethyl)-2-(3-fluorophenyl)-4-methylpyrrolo[1,2-a][1,3,5]triazine-8-carboxamide]
12 | 0.1 (≈ 0.255 µM) | > 20 | > 20 | Cc1nc(-c2ccc(F)cc2)nc2c(C(=O)NC(C3CC3)C(F)(F)F)ccn12 (stereo not drawn) [N-(1-Cyclopropyl-2,2,2-trifluoroethyl)-2-(4-fluorophenyl)-4-methylpyrrolo[1,2-a][1,3,5]triazine-8-carboxamide]
13 | 1.2 (≈ 3.92 µM) | < 5 | > 20 | Cc1nc(C)n2ccc(C(=O)Nc3ccc4c(c3)CCC4)c2n1 [N-(2,3-Dihydro-1H-inden-5-yl)-2,4-dimethylpyrrolo[1,2-a][1,3,5]triazine-8-carboxamide]
14 | 0.5 (≈ 1.58 µM) | < 5 | 5 to 20 | Cc1nc(C)c2cccc(C(=O)Nc3ccc4c(c3)CCC4)c2n1 [N-(2,3-Dihydro-1H-inden-5-yl)-2,4-dimethylquinazoline-8-carboxamide]
15 | 38.4 (≈ 141 µM) | < 5 | 5 to 20 | Cc1nc(C)n2ccc(C(=O)NC(C)(C)C3CC3)c2n1 [N-(2-Cyclopropylpropan-2-yl)-2,4-dimethylpyrrolo[2-a][1,3,5]triazine-8-carboxamide]
16 | 0.5 (≈ 1.42 µM) | < 5 | > 20 | Cc1nc(-c2ccc(F)cc2)nc2c(C(=O)NC(C)(C)C3CC3)ccn12 [N-(2-Cyclopropylpropan-2-yl)-2-(4-fluorophenyl)-4-methylpyrrolo[1,2-a][1,3,5]triazine-8-carboxamide]
17 | 1.8 (≈ 6.2 µM) | < 5 | > 20 | C#Cc1ccc(NC(=O)c2ccn3c(C)nc(C)nc23)cc1 [N-(4-Ethynylphenyl)-2,4-dimethylpyrrolo[1,2-a][1,3,5]triazine-8-carboxamide]
18 | 0.7 (≈ 2.32 µM) | < 5 | < 5 | C#Cc1ccc(NC(=O)c2cccc3c(C)nc(C)nc23)cc1 [N-(4-Ethynylphenyl)-2,4-dimethylquinazoline-8-carboxamide]
